What was measured:
Assay in all cases: relative viability (nuclei count vs DMSO), 5 days (fraction); higher = more cells survive
QS11 + Foretinib = compound: C1CC2=C(C1)C=C(C=C2)OC3=NC(=C4C(=N3)N(C=N4)CC5=CC=C(C=C5)C6=CC=CC=C6)N[C@@H](CC7=CC=CC=C7)CO [QS11] + COc1cc2c(Oc3ccc(NC(=O)C4(C(=O)Nc5ccc(F)cc5)CC4)cc3F)ccnc2cc1OCCCN1CCOCC1 [Foretinib] (partner 0.25 µM)
Outline: (§1)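 Relative viability divides the nuclei count in treated wells by that in vehicle wells. Lung cancer cell lines were seeded in 1536-well plates, dosed by pin tool the next day, and fixed and stained after 5 days in one step with final 0.05% Triton X-100, 1% formaldehyde and 1 ug/ml Hoechst. Dosing was a single drug or a fixed anchor-drug dose plus five library-drug doses (not always all listed) in √10 steps, and values are medians of duplicate plates imaged at 4×.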

AZ628 + Foretinib = compound: CC1=C(C=C(C=C1)NC(=O)C2=CC(=CC=C2)C(C)(C)C#N)NC3=CC4=C(C=C3)N=CN(C4=O)C [AZ628] + COc1cc2c(Oc3ccc(NC(=O)C4(C(=O)Nc5ccc(F)cc5)CC4)cc3F)ccnc2cc1OCCCN1CCOCC1 [Foretinib] (partner 0.25 µM)
Outline: as §1

[1] = compound: C[As](C)SC[C@H](NC(=O)CC[C@H](N)C(=O)O)C(=O)NCC(=O)O [Darinaparsin] + CC(C)C[C@H](NC(=O)[C@H](Cc1ccccc1)NC(=O)c1cnccn1)B(O)O [Bortezomib] (partner 0.002 µM)
Outline: as §1

[2] = compound: C[As](C)SC[C@H](NC(=O)CC[C@H](N)C(=O)O)C(=O)NCC(=O)O [Darinaparsin] + CCNC(=O)c1noc(-c2cc(C(C)C)c(O)cc2O)c1-c1ccc(CN2CCOCC2)cc1 [Luminespib] (partner 0.01 µM)
Outline: as §1

Cell Line	relative viability (QS11 + Foretinib; first compound 0.08 µM)	relative viability (QS11 + Foretinib; first compound 0.253 µM)	relative viability (QS11 + Foretinib; first compound 0.8 µM)	relative viability (QS11 + Foretinib; first compound 2.53 µM)	relative viability (QS11 + Foretinib; first compound 8 µM)	relative viability (AZ628 + Foretinib; first compound 0.08 µM)	relative viability (AZ628 + Foretinib; first compound 0.253 µM)	relative viability (AZ628 + Foretinib; first compound 0.8 µM)	relative viability (AZ628 + Foretinib; first compound 2.53 µM)	relative viability (AZ628 + Foretinib; first compound 8 µM)	relative viability ([1]; first compound 0.08 µM)	relative viability ([1]; first compound 0.8 µM)	relative viability ([1]; first compound 2.53 µM)	relative viability ([1]; first compound 8 µM)	relative viability ([2]; first compound 0.08 µM)	relative viability ([2]; first compound 0.8 µM)	relative viability ([2]; first compound 2.53 µM)	relative viability ([2]; first compound 8 µM)
NCI-H2405	1	0.986	1	1.08	1.16	0.637	0.857	0.673	0.757	0.539	1.08	0.936	0.899	1.09	0.822	0.611	0.61	0.689
NCI-H3122	0.979	1.08		1.05	0.749	0.787	0.625	0.499	0.613	0.233	1.04	1.02	1.08	1.13	0.0869	0.0882	0.107	0.112
PC-3 [JPC-3]	0.972	1.07	0.991	1.03	0.982	1.01	1.07	1.05	1.03	0.92	0.98	0.829	0.73	0.815	0.807	0.721	0.698	0.87
PC-14	1.11	0.95	0.777	0.889	1.06	0.95	0.916	0.949	0.945	0.765	0.925	0.77	0.753	1.11	0.19	0.185	0.157	0.0932
RERF-LC-KJ	0.883	0.86	0.62	0.79	0.834	0.885	0.922	0.898	0.899	0.893	1.33	1.14	1.14	1.12	1.97	1.21	1.11	1.15
SK-LU-1	0.782	0.874	0.68	0.784	0.641		0.75	0.685	0.628	0.589	1.58	1.19	0.871	1.33	0.203	0.182	0.214	0.169
SW 1573	0.862	0.926	1.02	0.853	1.07	0.858	0.858	0.664	0.7	0.517	1.02	1.01	1.05	1.29	0.23	0.364	0.302	0.249
UMC-11	1.13	1.1	1.07	1.32	1.06	1.13	0.916	0.951	1	1.19	0.81	0.728	0.442	0.739	1.16	0.994	1.08	1.22
